Columns and labels:
[1] = Ensrud et al., J Bone Miner Res. 2004; cited from earlier work
[2] = test system: ovariectomized rats; assay: Genistein dose-ranging preclinical study: serum markers of bone resorption and formation; assay type: in vivo, Sprague-Dawley rats
Description: (§1) This study was carried out to evaluate the effects of different human dose equivalents of genistein (aglycone) alone, or in combination with supplemental calcium carbonate and vitamin D3, on bone density, markers, and histology in ovariectomized rats. Forty-eight three month old ovariectomized (OVX) female Sprague-Dawley rats were purchased from Charles River Laboratories. Animals were maintained in plastic cages under standard environmental conditions with water and standard rat chow available ad libitum at the Animal Facility of the Department of Clinical and Experimental Medicine and Pharmacology of the University of Messina, Messina, Italy. After 1 week of acclimation, animals were randomly assigned to 12 different treatment groups that lasted for 6 weeks as summarized in Table 1 below:
(§2) Genistein doses were converted into human equivalents by using the following formula: (human dose in mg/m^2)=(kin)×(dose in mg/kg) where human m^2 for a person of 60 kg (considered as a medium weight for our cohort of post-menopausal women) is 1.62 and km is the conversion factor (for a rat of 250 gr is 7.0) {Freireich, 1966 4611/id. Genistein was diluted in a 1:1 solution of 0.9% NaCl and DMSO and administered by intraperitoneal injection. Animals received 50% supplementation of their normal daily intake of calcium and vitamin D3 (50.4 IU/kg/day) by oral gavage, which equated to 366.52 mg/kg/day of calcium and 50.4 IU/kg/day of vitamin D3.
(§3) Bone mineral density of the right femur was measured using dual-energy X-ray absorptiometry. The coefficient of variation for femur BMD was 1.16%. Animals were maintained under controlled conditions for 6 weeks, at the end of the experiments were sacrificed under general anaesthesia (with chloral hydrate 400 mg/kg/ip) after blood collection by cardiac puncture. Blood was centrifuged and serum stored immediately at −20° C. for analysis. Serum was used to quantify markers of bone resorption [soluble receptor activator of nuclear factor kappaB ligand (sRANKL) and C-terminal telopeptide (CTX)] and formation [bone-specific alkaline phosphatase and osteoprotegerin (OPG)].

[3] = test system: ovariectomized rats; assay: Genistein dose-ranging preclinical study: bone mineral density of the right femur by dual-energy X-ray absorptiometry; assay type: in vivo, Sprague-Dawley rats
Description: as §1, §2, §3

[4] = test system: ovariectomized (OVX) female Sprague-Dawley rats; assay: Genistein bone architecture study: femoral head histology; assay type: in vivo; conditions: human equivalent dose of 54 mg/day (4.76 mg/kg/day i.p.), photomicrographs, preliminary evidence, to approximately that of non-ovariectomized animal
Description: Three month old ovariectomized (OVX) female Sprague-Dawley rats were purchased from Charles River Laboratories. Animals were maintained in plastic cages under standard environmental conditions with water and standard rat chow available ad libitum at the Animal Facility of the Department of Clinical and Experimental Medicine and Pharmacology of the University of Messina, Messina, Italy.
Dose Calculation—Genistein doses were converted into animal equivalents by using the following formula: (human dose in mg/m^2)=(km)×(dose in mg/kg) where human m^2 for a person of 60 kg (considered as a medium weight for our cohort of post-menopausal women) is 1.62 and km is the conversion factor (for a rat of 250 gr is 7.0) {Freireich, 1966 4611/id}. Therefore, animals given the human equivalent of 54 mg/day were administered 4.76 mg/kg/day. Genistein was diluted in a 1:1 solution of 0.9% NaCl and DMSO and administered by intraperitoneal injection in a volume of […].
Histology—Rat femora decalcified in 4% EDTA for approximately 1 week and then processed for routine paraffin embedding following standard procedures. Sections were cut at the femoral head just proximal to the coxofemoral joint and stained with hematoxylin and eosin.

[5] = test system: post-menopausal women; conditions: administered for one year to post-menopausal women; Morabito et al. 2002; cited from earlier work
[6] = test system: younger postmenopausal women; conditions: 10 000 U vitamin D3/wk added to calcium 1000 mg/d, postmenopausal women (age: 56 y); Cooper et al. 2003; cited from earlier work
[7] = vitamin D3 added to estrogen therapy; Tuppurainen et al. 1998; cited from earlier work
[8] = serum, OVX rats, genistein 0-1000 mg/day human dose equivalents i.p., 6 weeks, p<0.001, FIG. 1

## NCCCC(O)(P(=O)(O)O)P(=O)(O)O [alendronate]
[1]
  reducing fractures beyond 5 years of treatment: no benefit

## O=c1c(-c2ccc(O)cc2)coc2cc(O)cc(O)c12 [genistein, 4′,5,7-trihydroxyisoflavone]
[2]; OVX rats, genistein i.p., 6 weeks, p<0.001, FIG. 3
  RANKL/OPG ratio: decreased
[2]; bone markers, BMD and RANKL/OPG ratio, no further significant improvement beyond this dose by post-hoc testing
  dose at which the genistein effect reached a plateau: 54 mg human dose equivalent
[2]; [8]
  Bone specific alkaline phosphatase (marker of bone formation): dose-dependently increased
  CTX (marker of bone resorption): decreased
  osteoprotegerin (marker of bone formation): dose-dependently increased
  sRANKL (marker of bone resorption): decreased
[3]; equivalent of 54 mg genistein per day, only group showing it
  BMD when supplemented with vitamin D3 and calcium: statistically significant preservation
[3]; femur, OVX rats, genistein i.p., 6 weeks, p<0.001, FIG. 2
  bone mineral density: increases
[3]; genistein 27, 200, 500 and 1,000 mg human equivalent doses, even worsened in some instances
  BMD when supplemented with vitamin D3 or calcium: no improvement
[3]; genistein at 54 mg/day and above (human dose equivalents)
  BMD over 6 weeks in calcium and vitamin D3-replete rats: significant increases
[4]
  trabecular architecture (trabecular rod number and thickness) of femoral head: restores trabecular architecture
[5]
  bone mineral density: improve
  several biochemical markers of bone health: improve

## C=C1CC[C@H](O)C/C1=C/C=C1\CCC[C@]2(C)[C@@H]([C@H](C)CCCC(C)C)CC[C@@H]12 [vitamin D3]
[6]
  bone mineral density beyond calcium supplementation alone: did not confer benefits
[7]
  lumbar or femoral bone mineral density changes: no statistically significant improvement
